Assay results taken from patent US20090192135A1, “Human Niemann Pick C1-Like 1 Gene (NPC1L1) Polymorphisms and Methods of Use Thereof” (SCHERING CORPORATION, priority 2005, published 2009).

Target: T1, NPC1L1 (Homo sapiens, UniProt Q9UHC9)
T1 construct: from tissue; host or cells: small intestine of hypercholesterolemic patients (in vivo, clinical trial)
T1 sequence (Q9UHC9 22-1332 isoform Q9UHC9-2 limits assumed): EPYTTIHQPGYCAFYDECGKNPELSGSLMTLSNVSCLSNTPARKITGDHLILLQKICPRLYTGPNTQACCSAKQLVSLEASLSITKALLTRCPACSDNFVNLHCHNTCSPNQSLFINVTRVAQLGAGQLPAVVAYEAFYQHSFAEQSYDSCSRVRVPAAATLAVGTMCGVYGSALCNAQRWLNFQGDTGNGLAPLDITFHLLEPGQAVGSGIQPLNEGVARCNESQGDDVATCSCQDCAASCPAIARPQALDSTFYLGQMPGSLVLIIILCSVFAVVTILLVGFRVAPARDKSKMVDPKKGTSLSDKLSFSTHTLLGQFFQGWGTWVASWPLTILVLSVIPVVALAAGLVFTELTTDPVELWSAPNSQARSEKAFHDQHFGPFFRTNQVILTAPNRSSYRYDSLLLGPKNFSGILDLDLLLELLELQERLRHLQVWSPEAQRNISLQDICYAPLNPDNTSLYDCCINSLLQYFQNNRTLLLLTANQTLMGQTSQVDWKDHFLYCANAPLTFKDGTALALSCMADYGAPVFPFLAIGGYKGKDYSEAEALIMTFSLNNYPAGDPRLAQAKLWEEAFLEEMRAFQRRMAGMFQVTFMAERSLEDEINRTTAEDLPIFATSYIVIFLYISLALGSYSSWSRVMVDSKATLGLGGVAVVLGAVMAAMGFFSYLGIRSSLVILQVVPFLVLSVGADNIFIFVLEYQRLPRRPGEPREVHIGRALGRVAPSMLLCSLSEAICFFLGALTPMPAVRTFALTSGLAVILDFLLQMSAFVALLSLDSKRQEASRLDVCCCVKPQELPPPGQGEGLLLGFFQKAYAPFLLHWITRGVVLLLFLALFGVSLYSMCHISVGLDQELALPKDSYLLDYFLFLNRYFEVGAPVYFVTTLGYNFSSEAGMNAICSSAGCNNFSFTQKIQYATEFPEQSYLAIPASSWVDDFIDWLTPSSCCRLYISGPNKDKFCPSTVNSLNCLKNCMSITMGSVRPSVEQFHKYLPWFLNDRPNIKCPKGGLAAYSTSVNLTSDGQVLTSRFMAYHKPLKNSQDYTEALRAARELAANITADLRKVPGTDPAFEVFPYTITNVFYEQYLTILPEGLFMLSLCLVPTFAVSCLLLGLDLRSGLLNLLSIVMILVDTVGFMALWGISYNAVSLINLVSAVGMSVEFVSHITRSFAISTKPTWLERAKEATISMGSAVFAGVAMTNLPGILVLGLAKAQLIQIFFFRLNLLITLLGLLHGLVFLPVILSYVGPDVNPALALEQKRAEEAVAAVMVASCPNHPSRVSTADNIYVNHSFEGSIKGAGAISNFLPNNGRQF
Assay: EASE trial: LDL-C response to six weeks of ezetimibe 10 mg/day added to stable statin therapy, analysed by NPC1L1 genotype/haplotype
Assay type: in vivo
Conditions: for Least-Squares (adjusted) Mean (n,/Stderr), percent change in LDL-C: Extreme responders N = 239; for Odds Ratio, extreme responder association with SNP: g.-18C > A; for Adjusted Least Squares Mean, LDL-C response: extreme responder data set
Experimental: Genotyping assays were developed for a number of novel and known common variants with minor allele frequencies greater than 4% that were identified in Example 1. Genetic association analysis was performed with these SNPs in a clinical trial cohort (EASE), described below, to assess whether DNA sequence variants in NPC1L1 are associated with changes in the levels of a variety of plasma cholesterol components in hypercholesterolemia patients in response to pharmacotherapy with ezetimibe and statins as compared to patients treated with a statin and placebo.
To study whether variations in NPC1L1 were associated with response to ezetimibe added to statin therapy, a study population was derived from the Ezetimibe Add-On to Statin for Effectiveness (EASE) Trial (Pearson et al., (2005) Mayo Clinic Proceedings, In Press). The EASE trial was a community-based, randomized, double-blind, placebo controlled study to evaluate the effects of six weeks of ezetimibe, 10 mg/day, added on to a stable regimen of statin therapy, on lipid biomarkers in hypercholesterolemic patients whose LDL-C levels exceeded the National Cholesterol Education Program (NCEP) Adult Treatment Panel (ATP) m guidelines for their coronary heart disease (CHD) risk category. At enrollment, patients taking a stable dose of statin (any dose, any brand) and following a NCEP Step 1 diet or similar cholesterol-lowering diet for at least six weeks prior to entry into the study were randomized to either the ezetimibe (n=2020, 2009 received the treatment) or placebo (n=1010, 1009 received the treatment) arm. From the ezetimibe group, 1208 patients provided consent for genomic analysis and were included in this study. A series of clinical measures corresponding to various cardiovascular risk factors were measured from samples obtained from all trial participants and are summarized by Pearson et al., supra.
Twenty one SNPs from Table 4 (Example 1) were converted to valid genotyping assays, thirteen of which had allele frequencies greater than 2% in all EASE sub-populations. TaqMan Allelic Discrimination assays (Livak, (1999) Genet. Anal. 14:143-49) were performed using Primer Express software and the Assay-by-Design service offered by Applied Biosystems (Foster City, Calif.). […] All probe/primer sets were designed to function using universal reaction and cycling conditions.
The twenty one selected SNPs were genotyped in 1,208 individuals participating in the ezetimibe+statin treatment arm of the EASE trial. A series of clinical measures corresponding to various cardiovascular risk factors were taken on all trial participants (Tables 4a-d). Thirteen selected SNPs genotyped in the EASE cohort were confirmed as having common allele frequencies in this cohort, i.e., an allele frequency of greater than 2% in all EASE sub-populations. […] This could reflect the increased power in the larger EASE cohort to make such detections (see Table 5).
The mean (SD) for total plasma cholesterol, HDL cholesterol (HDL-C), and LDL cholesterol (LDL-C) was 211.0 (34.9), 48.6 (11.5), and 129.1 (30.0) mg/dL, respectively (Pearson et al., supra). […] The distribution of these measurements was similar in the subjects enrolled in this genetic study (Pearson et al., supra). […] No significant associations were found between these response predictive variables and any of the tagging SNPs.
Genetic association analysis was carried out in the EASE cohort with LDL-C response to ezetimibe treatment considered as the primary outcome variable. Individual SNPs, haplotypes, and haplotype combinations were the principal explanatory variables used in the analyses. General linear models were used to estimate the effects of genotypes, haplotypes, and diplotypes on the LDL-C response phenotype. Baseline LDL-C levels, sex, age, and race were investigated to determine if they gave rise to significant effects. Baseline LDL-C levels associated with significant effects in all models and were therefore included in all analyses. […]

## O=C1[C@H](CC[C@H](O)c2ccc(F)cc2)[C@@H](c2ccc(O)cc2)N1c1ccc(F)cc1 [ezetimibe, 1-(4-fluorophenyl)-3(R)-[3-(4-fluorophenyl)-3(S)-hydroxypropyl]-4(S)-(4-hydroxyphenyl)-2-azetidinone]
g.1679C > G C/C
  Least-Squares (adjusted) Mean (n,/Stderr), percent change in LDL-C: C/C: −17.49 (143/2.71) %
g.1679C > G C/G
  Least-Squares (adjusted) Mean (n,/Stderr), percent change in LDL-C: C/G: −25.16 (85/3.51) %
g.1679C > G G/G
  Least-Squares (adjusted) Mean (n,/Stderr), percent change in LDL-C: G/G: −40.93 (11/9.76) %
Baseline LDL-C as covariate table, extreme responders N = 239, CI (1.59, 5.44)
  Odds Ratio, extreme responder association with SNP: Odds Ratio = 2.94-
Baseline LDL-C as covariate, extreme responders N = 239, g.-18C > A C/C
  Least-Squares (adjusted) Mean, percent change in LDL-C: C/C: −17.8%
Baseline LDL-C as covariate, g.-18C > A A/A
  Least-Squares (adjusted Mean), percent change from baseline LDL-C: −26.5%
Baseline LDL-C as covariate, g.-18C > A C/A
  Least-Squares (adjusted Mean), percent change from baseline LDL-C: −27.9%
Baseline LDL-C as covariate, g.-18C > A C/C
  Least-Squares (adjusted Mean), percent change from baseline LDL-C: −24.2%
Baseline LDL-C as covariate, g.-133A > G A/A
  Least-Squares (adjusted Mean), percent change from baseline LDL-C: −25.9%
Baseline LDL-C as covariate, g.-133A > G A/G
  Least-Squares (adjusted Mean), percent change from baseline LDL-C: −24.8%
Baseline LDL-C as covariate, g.-133A > G G/G
  Least-Squares (adjusted Mean), percent change from baseline LDL-C: −21.9%
Baseline LDL-C as covariate, g.1679C > G C/C
  Least-Squares (adjusted Mean), percent change from baseline LDL-C: −24.5%
Baseline LDL-C as covariate, g.1679C > G C/G
  Least-Squares (adjusted Mean), percent change from baseline LDL-C: −26%
Baseline LDL-C as covariate, g.1679C > G G/G
  Least-Squares (adjusted Mean), percent change from baseline LDL-C: −27.9%
Baseline LDL-C as covariate, g.19224G > A A/A
  Least-Squares (adjusted Mean), percent change from baseline LDL-C: −28.6%
Baseline LDL-C as covariate, g.19224G > A G/A
  Least-Squares (adjusted Mean), percent change from baseline LDL-C: −25.8%
Baseline LDL-C as covariate, g.19224G > A G/G
  Least-Squares (adjusted Mean), percent change from baseline LDL-C: −25%
Baseline LDL-C as covariate, g.19259T > C C/C
  Least-Squares (adjusted Mean), percent change from baseline LDL-C: −26.2%
Baseline LDL-C as covariate, g.19259T > C T/C
  Least-Squares (adjusted Mean), percent change from baseline LDL-C: −25.2%
Baseline LDL-C as covariate, g.19259T > C T/T
  Least-Squares (adjusted Mean), percent change from baseline LDL-C: −25%
Baseline LDL-C as covariate, g.28650A > G A/A
  Least-Squares (adjusted Mean), percent change from baseline LDL-C: −24.3%
Baseline LDL-C as covariate, g.28650A > G A/G
  Least-Squares (adjusted Mean), percent change from baseline LDL-C: −26.6%
Baseline LDL-C as covariate, g.28650A > G G/G
  Least-Squares (adjusted Mean), percent change from baseline LDL-C: −28%
Corresponding to a 15% relative increase in LDL-C reductions
  additional decrease in absolute LDL-C levels: ~5 mg/dL
Diplotype A-A-C / A-C-C
  Adjusted Least Squares Mean, LDL-C response: −38.20%
Diplotype A-A-G / A-C-C
  Adjusted Least Squares Mean, LDL-C response: −34.80%
Diplotype A-A-G / A-C-G
  Adjusted Least Squares Mean, LDL-C response: −40.29%
Diplotype A-A-G / G-C-C
  Adjusted Least Squares Mean, LDL-C response: −29.06%
Diplotype A-C-C / A-C-C
  Adjusted Least Squares Mean, LDL-C response: −21.78%
Diplotype A-C-C / A-C-G
  Adjusted Least Squares Mean, LDL-C response: −4.60%
Diplotype A-C-C / G-C-C
  Adjusted Least Squares Mean, LDL-C response: −14.60%
Diplotype A-C-G / A-C-G
  Adjusted Least Squares Mean, LDL-C response: −41.46%
Diplotype A-C-G / G-C-C
  Adjusted Least Squares Mean, LDL-C response: −24.20%
Diplotype G-C-C / G-C-C
  Adjusted Least Squares Mean, LDL-C response: 3.93%
Diplotype G-C-C / G-C-G
  Adjusted Least Squares Mean, LDL-C response: −66.96%
Extreme responders, 3-SNP haplotype A-A-G, 0 copies (count 181)
  Adjusted Least Squares Mean (stderr), LDL-C response: −17.32 (2.38) %
Extreme responders, 3-SNP haplotype A-A-G, 1 copy (count 58)
  Adjusted Least Squares Mean (stderr), LDL-C response: −33.69 (4.21) %
Extreme responders, 3-SNP haplotype G-C-C, 0 copies (count 139)
  Adjusted Least Squares Mean (stderr), LDL-C response: −24.51 (2.75) %
Extreme responders, 3-SNP haplotype G-C-C, 1 copy (count 92)
  Adjusted Least Squares Mean (stderr), LDL-C response: −18.62 (3.38) %
Extreme responders, 3-SNP haplotype G-C-C, 2 copies (count 8)
  Adjusted Least Squares Mean (stderr), LDL-C response: 3.93 (11.45) %
Extreme responders, g.−18C>A heterozygotes
  mean LDL-C percent response: 33.98%
Extreme responders, g.−18C>A heterozygotes vs homozygous common allele
  increase in efficacy / increased reduction in LDL-C: 100%
Extreme responders, homozygous for the common allele of g.−18C>A (176/239)
  mean LDL-C percent response: 16.8%
Extreme responders N = 239, 95% CI 1.59, 5.44
  Odds Ratio, extreme responder association with SNP: Odds ratio** = 2.94-
g.−18C>A minor allele carriers compared to homozygous major allele, EASE cohort
  increased LDL-C response / greater reduction in LDL-C: 15%
